T/C data for 17 compounds are collected here from PubChem BioAssay AID330 (DTP/NCI, 2004).

For this experiment, the system named is P388 leukemia ip, CD2F1 mice, survival T/C. In words: NCI In Vivo Anticancer Drug Screen. Data for tumor model P388 Leukemia (intraperitoneal) in CD2F1 (CDF1) mice. As to conditions: endpoint: median survival time, higher = longer survival. Summed up:
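Mice carrying the transplanted tumor received test compound or vehicle. Survival was recorded in each group, and the value is the treated-group measurement divided by that of the vehicle-treated control group.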

Where [1] appears, read: dose: 50.0 mg/kg/injection, schedule: Q01DX005 (ip), vehicle: saline with Tween-80.
The mark [2] stands for this setting: dose: 100.0 mg/kg/injection, schedule: Q01DX005 (ip), vehicle: saline with Tween-80.
Where [3] appears, read: dose: 50.0 mg/kg/injection, schedule: Q01DX009 (ip), vehicle: saline with Tween-80.

Values joined by “and” are separate entries in the source; they are usually repeats but may differ in a detail not shown here. Identical values can stand only once. Toxic doses and inconclusive results are not listed.

For `Cc1nc(N)cc(=O)[nH]1`, the T/C was 89 % of control (dose: 50.0 mg/kg/injection, schedule: Q01DX009 (ip), vehicle: suspension in saline); 93 % of control (dose: 100.0 mg/kg/injection, schedule: Q01DX009 (ip), vehicle: suspension in saline); 91 % of control (dose: 200.0 mg/kg/injection, schedule: Q01DX009 (ip), vehicle: suspension in saline); 101 % of control (dose: 400.0 mg/kg/injection, schedule: Q01DX009 (ip), vehicle: suspension in saline).

Take `N#Cc1c(C#N)c(O)c2c(N)cccc2c1O`: the T/C by setting is: (dose: 100.0 mg/kg/injection, schedule: Q04DX002 (ip), vehicle: saline with Tween-80) 105 % of control; (dose: 200.0 mg/kg/injection, schedule: Q04DX002 (ip), vehicle: saline with Tween-80) 108 % of control.

On to `CCN(CC)CCCNc1cccc2c(SCc3ccccc3)ccnc12`, for which the T/C is 112 % of control under setting [1] and 102 % of control under setting [2].

Regarding `CC(=O)Nc1ccc(S(=O)(=O)NCCSSCCNS(=O)(=O)c2ccc(NC(C)=O)cc2)cc1`, the T/C is 102 % of control (dose: 50.0 mg/kg/injection, schedule: Q01DX009 (ip), vehicle: Klucel (hydroxypropylcellulose) (HPC)); 94 % of control (dose: 100.0 mg/kg/injection, schedule: Q01DX009 (ip), vehicle: Klucel (hydroxypropylcellulose) (HPC)); 91 % of control (dose: 200.0 mg/kg/injection, schedule: Q01DX009 (ip), vehicle: Klucel (hydroxypropylcellulose) (HPC)).

With `O=C(NCCCCNCCCNC(=O)c1ccc([N+](=O)[O-])cc1)c1ccc([N+](=O)[O-])cc1`, the T/C was 97 % of control (dose: 60.0 mg/kg/injection, schedule: Q01DX005 (ip), vehicle: saline with Tween-80); 92 % of control (dose: 120.0 mg/kg/injection, schedule: Q01DX005 (ip), vehicle: saline with Tween-80); 98 % of control (dose: 240.0 mg/kg/injection, schedule: Q01DX005 (ip), vehicle: saline with Tween-80).

For the compound `CCOC1CC2(O)c3c(cc4c(c3O)C(=O)c3c(O)ccc(O)c3C4=O)OC2O1` (centres undefined), the T/C was 103 % of control (dose: 100.0 mg/kg/injection, schedule: Q01DX001 (ip), vehicle: saline); 109 % of control (dose: 200.0 mg/kg/injection, schedule: Q01DX001 (ip), vehicle: saline); 116 % of control (dose: 400.0 mg/kg/injection, schedule: Q01DX001 (ip), vehicle: saline).

In the case of `O=[N+]([O-])c1cnc(Sc2ccncn2)s1`, the T/C was 103 % of control (dose: 1.56 mg/kg/injection, schedule: Q01DX009 (ip), vehicle: saline); 108 % of control (dose: 3.12 mg/kg/injection, schedule: Q01DX009 (ip), vehicle: saline); 100 % of control and 87 % of control (dose: 6.25 mg/kg/injection, schedule: Q01DX009 (ip), vehicle: saline); 93 % of control (dose: 12.5 mg/kg/injection, schedule: Q01DX009 (ip), vehicle: saline).

Consider `CCCCCCCCOCC(=O)O`, for which the T/C was 107 % of control under setting [3]; 94 % of control (dose: 100.0 mg/kg/injection, schedule: Q01DX009 (ip), vehicle: saline with Tween-80); 96 % of control (dose: 200.0 mg/kg/injection, schedule: Q01DX009 (ip), vehicle: saline with Tween-80).

On to `O=C(O)c1cnc2cc(F)ccc2c1Nc1ccc2c(c1)OCO2`, for which the T/C runs as follows: (dose: 60.0 mg/kg/injection, schedule: Q01DX005 (ip), vehicle: Klucel + Tween-80) 97 % of control; (dose: 120.0 mg/kg/injection, schedule: Q01DX005 (ip), vehicle: Klucel + Tween-80) 94 % of control; (dose: 240.0 mg/kg/injection, schedule: Q01DX005 (ip), vehicle: Klucel + Tween-80) 89 % of control.

Regarding `O=c1[nH]c(=O)n(C(c2ccccc2)(c2ccccc2)c2ccccc2)cc1N(CCO)CCO`, the T/C is 100 % of control (dose: 50.0 mg/kg/injection, schedule: Q01DX005 (ip), vehicle: Klucel (hydroxypropylcellulose) (HPC)); 97 % of control (dose: 100.0 mg/kg/injection, schedule: Q01DX005 (ip), vehicle: Klucel (hydroxypropylcellulose) (HPC)); 98 % of control (dose: 200.0 mg/kg/injection, schedule: Q01DX005 (ip), vehicle: Klucel (hydroxypropylcellulose) (HPC)).

For the compound `CSc1nc(Cl)cc(N2CC2)n1`, the T/C runs as follows: (dose: 0.5 mg/kg/injection, schedule: Q04DX003 (ip), vehicle: saline) 110 % of control; (dose: 1.0 mg/kg/injection, schedule: Q04DX003 (ip), vehicle: saline) 100 % of control; (dose: 2.0 mg/kg/injection, schedule: Q04DX003 (ip), vehicle: saline) 100 % of control.

As for `Cc1ccc2c(c1)C(=O)c1ccccc1/C2=C1\c2ccccc2C(=O)c2cc(C)ccc21`, the T/C by setting is: (dose: 50.0 mg/kg/injection, schedule: Q01DX005 (ip), vehicle: Klucel + Tween-80) 105 % of control; (dose: 100.0 mg/kg/injection, schedule: Q01DX005 (ip), vehicle: Klucel + Tween-80) 89 % of control; (dose: 200.0 mg/kg/injection, schedule: Q01DX005 (ip), vehicle: Klucel + Tween-80) 89 % of control.

Consider `C/C(=N\NC(=S)N1CCCCCC1)c1cccc2cccnc12`, for which the T/C is 107 % of control under setting [1]; 103 % of control under setting [2]; 116 % of control (dose: 200.0 mg/kg/injection, schedule: Q01DX005 (ip), vehicle: saline with Tween-80).

Regarding `CC1=NN(c2ccc(S(=O)(=O)O)cc2)C(=O)C1N=Nc1ccc(-c2ccc(N=Nc3ccc(OS(=O)(=O)c4ccc(C)cc4)cc3)c(S(=O)(=O)O)c2)cc1` (centres undefined), the T/C was 100 % of control (dose: 50.0 mg/kg/injection, schedule: Q01DX009 (ip), vehicle: saline); 100 % of control (dose: 100.0 mg/kg/injection, schedule: Q01DX009 (ip), vehicle: saline); 97 % of control (dose: 200.0 mg/kg/injection, schedule: Q01DX009 (ip), vehicle: saline).

Consider `NC(=O)c1c(Cl)cccc1Cl`, for which the T/C was 101 % of control (dose: 12.5 mg/kg/injection, schedule: Q04DX003 (ip), vehicle: saline); 93 % of control (dose: 25.0 mg/kg/injection, schedule: Q04DX003 (ip), vehicle: saline); 99 % of control (dose: 50.0 mg/kg/injection, schedule: Q04DX003 (ip), vehicle: saline); 101 % of control (dose: 100.0 mg/kg/injection, schedule: Q04DX003 (ip), vehicle: saline).

In the case of `C[n+]1ccc(Nc2ccc(NC(=O)c3ccc(Nc4cc[n+](C)c5ccc(N)cc45)cc3)cc2)cc1`, the T/C runs as follows: (dose: 1.0 mg/kg/injection, schedule: Q04DX003 (ip), vehicle: Klucel (hydroxypropylcellulose) (HPC)) 116 % of control; (dose: 2.0 mg/kg/injection, schedule: Q01DX005 (ip), vehicle: suspension in saline) 187 % of control; (dose: 2.0 mg/kg/injection, schedule: Q04DX003 (ip), vehicle: Klucel (hydroxypropylcellulose) (HPC)) 166 % of control; (dose: 2.88 mg/kg/injection, schedule: Q04DX003 (ip), vehicle: water) 158 % of control; (dose: 4.0 mg/kg/injection, schedule: Q01DX005 (ip), vehicle: suspension in saline) 239 % of control; (dose: 4.0 mg/kg/injection, schedule: Q04DX003 (ip), vehicle: Klucel (hydroxypropylcellulose) (HPC)) 168 % of control. Moreover, the T/C runs as follows: (dose: 4.8 mg/kg/injection, schedule: Q04DX003 (ip), vehicle: water) 167 % of control; (dose: 8.0 mg/kg/injection, schedule: Q01DX005 (ip), vehicle: suspension in saline) 283 % of control; (dose: 8.0 mg/kg/injection, schedule: Q04DX003 (ip), vehicle: Klucel (hydroxypropylcellulose) (HPC)) 237 % of control; (dose: 8.0 mg/kg/injection, schedule: Q04DX003 (ip), vehicle: water) 200 % of control; (dose: 9.0 mg/kg/injection, schedule: Q04DX003 (ip), vehicle: water) 170 % of control; (dose: 13.3 mg/kg/injection, schedule: Q04DX003 (ip), vehicle: water) 238 % of control. Also, the T/C is, setting by setting: (dose: 16.0 mg/kg/injection, schedule: Q04DX003 (ip), vehicle: Klucel (hydroxypropylcellulose) (HPC)) 270 % of control; (dose: 32.0 mg/kg/injection, schedule: Q04DX003 (ip), vehicle: Klucel (hydroxypropylcellulose) (HPC)) 294 % of control.

In the case of `N=C(N)SCN1C(=O)c2ccccc2C1=O`, the T/C was 114 % of control (dose: 6.25 mg/kg/injection, schedule: Q01DX009 (ip), vehicle: saline with Tween-80); 107 % of control (dose: 12.5 mg/kg/injection, schedule: Q01DX009 (ip), vehicle: saline with Tween-80); 123 % of control (dose: 25.0 mg/kg/injection, schedule: Q01DX009 (ip), vehicle: saline with Tween-80); 122 % of control under setting [3].
